Data reported in paper PMC10539501 (Nature Communications, 2023).
Values belong to the compound of their own block, whether it stands above or below them. Starred links: 1 amine or outer side, 2 acyl side, 3 side chain; linkers in the order of their positions; H or OH if unused. Non-standard residues stand in square brackets, D forms with d. Residues, ends and D or L forms follow the SMILES beside them. X6 = O=C([C@H](Cc1ccc(O)cc1)NC(=S)[C@H]1CCCN1[*:1])[*:2]; X3 = CC(C)C[C@H](N[*:1])C(=S)N[C@H](CC(C)C)C(=O)[*:2]; X4 = CC(C)C[C@H](N[*:1])C(=S)N1CCC[C@@H]1C(=O)[*:2]; X16 = CC(C)C[C@H](N[*:1])C(=S)N[C@H](C)C(=O)[*:2]; NMeL = CN[C@@H](CC(C)C)C(=O)O

Experiments:
[1] = PAMPA passive permeability; assay type: in vitro ADME;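 note: passive permeability across an artificial membrane in 96-well pre-coated PAMPA plates, which lack transporters and efflux systems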
Protocol: Encouraged by this, the passive permeability of the analogs was evaluated using an artificial membrane (PAMPA), which measures permeability of compounds in the absence of transporters and efflux systems[32].
96-well BD Corning® pre-coated PAMPA plates were used following the supplier’s protocol, details in Supplementary Information.

pepsin = pepsin (Sus scrofa, UniProt P00791); assay: in vitro; conditions: simulated gastric fluid, pH 1.2
Chain of pepsin (P00791 60-385): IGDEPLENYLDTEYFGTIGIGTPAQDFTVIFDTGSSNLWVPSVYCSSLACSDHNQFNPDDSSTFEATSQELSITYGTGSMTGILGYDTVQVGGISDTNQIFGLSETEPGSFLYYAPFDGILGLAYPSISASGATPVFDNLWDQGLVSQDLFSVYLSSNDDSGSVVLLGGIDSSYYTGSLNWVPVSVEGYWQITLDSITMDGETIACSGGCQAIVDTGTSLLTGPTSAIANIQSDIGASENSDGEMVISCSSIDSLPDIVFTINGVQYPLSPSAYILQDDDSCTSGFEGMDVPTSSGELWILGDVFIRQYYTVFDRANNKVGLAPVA
Protocol: (§1) A stability assessment of the peptides was done in simulated gastric (SGF) and intestinal (SIF) fluids and human liver microsomes. The degradation kinetics of the aliquoted samples at desired time points were analyzed through RP-HPLC.

in vitro [2] = conditions: pig, simulated intestinal fluid
Protocol: We next assessed the stability of the macrocyclic peptides in Simulated Intestinal Fluid (SIF)[42], comprising of pancreatin, which is a mixture of several proteases produced by the exocrine cells of the porcine pancreas.
as §1

[3] = assay type: physicochemical
in vitro [4] = conditions: human, microsomes
Protocol: as §1

Caco-2 cells = assay: in vitro; assay type: in vitro ADME, human; conditions: Caco-2
Protocol: (§2) The Caco-2 cell (HTB-37^TM from ATCC, procured from NCCS, Pune) monolayer was washed and pre-incubated at 37 °C and 5% CO2 for 30 min with HBSS-HEPES buffer containing 1% DMSO prior to experimentation. The assay was performed 21 days post-seeding of cells. TEER values were measured before starting and after the completion of the assay. Acceptor and donor well concentrations of the peptides and controls were assessed through LC-MS/MS.

in vitro [5] = assay type: in vitro ADME, human
Protocol: as §2

[6] = assay type: physicochemical; remark: listed apart in the source
Description: Since reduced solvation of S also contributes to the lipophilicity of the thioamidated peptides, we sought to estimate the global desolvation of the macrocyclic peptides, which is affected by solvation of both N(H) and C(S). […] Thus, we evaluated the desolvation potential of the cyclic peptides by determining the distribution coefficients in heptane-ethylene glycol (logDh/e), a solvent system that provides an experimental estimate of desolvation or hydrogen bond potential[38].

physchem = conditions: pH 7.4
in vitro [7] = conditions: both, human, plasma
in vitro [8] = conditions: both, human, plasma; remark: listed apart in the source
[9] = rat, in vivo, po, 10 mg/kg
Protocol: (§3) All animals were housed individually in the animal facility at Anthem Biosciences Pvt. Ltd and were acclimatized for 3 days. All animals were fasted overnight before dosing, whereas access to water was provided ad libitum. Peptides were administered orally and via s.c. route and blood samples were collected at different time points through a jugular vein catheter.

in vivo = conditions: male, Wistar, rat
Protocol: as §3

[10] = Retention in hydrophobic C18 column by HPLC; conditions: Supplementary Fig 3d, logD7.4 vs tR
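Throughout, for Papp A-B + Elacridar avg: Caco-2 monolayers used 21 days after seeding in HBSS-HEPES buffer with 1% DMSO, donor and acceptor levels quantified by LC-MS/MS, TEER checked before and after.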
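Throughout, for Papp A-B + Elacridar set 1: Caco-2 monolayers used 21 days after seeding in HBSS-HEPES buffer with 1% DMSO, donor and acceptor levels quantified by LC-MS/MS, TEER checked before and after.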
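Throughout, for Papp A-B + Elacridar set 2: Caco-2 monolayers used 21 days after seeding in HBSS-HEPES buffer with 1% DMSO, donor and acceptor levels quantified by LC-MS/MS, TEER checked before and after.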
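Throughout, for Papp A-B avg: Caco-2 monolayers used 21 days after seeding in HBSS-HEPES buffer with 1% DMSO, donor and acceptor levels quantified by LC-MS/MS, TEER checked before and after.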

Protocol for human liver microsomes: as §1

Pe Avg [1]: 3.1 ×10⁻⁶ cm/s
Pe set1 [1]: 2.92 ×10⁻⁶ cm/s
Pe set2 [1]: 3.69 ×10⁻⁶ cm/s
Pe set3 [1]: 2.79 ×10⁻⁶ cm/s
Papp ([1]; Pe Avg): 3.1 ×10⁻⁶ cm/s
half-life (pepsin): 0.333 h
remaining at 5 min (pepsin): 76%
remaining at 10 min (pepsin): 68%
remaining at 20 min (pepsin): 50%
remaining at 0.5 h (pepsin): 41%
remaining at 1 h (pepsin): 31%
remaining at 2 h (pepsin): 26%
remaining at 4 h (pepsin): 19%
remaining at 8 h (pepsin): 12%
remaining at 12 h (pepsin): 5%
remaining at 24 h (pepsin): 0%
half-life (in vitro [2]): 0.567 h
remaining at 10 min (in vitro [2]): 70%
remaining at 0.5 h (in vitro [2]): 50.7%
remaining at 1 h (in vitro [2]): 46.6%
remaining at 2 h (in vitro [2]): 38.4%
remaining at 4 h (in vitro [2]): 29.3%
remaining at 8 h (in vitro [2]): 26.2%
remaining at 12 h (in vitro [2]): 20.6%
remaining at 24 h (in vitro [2]): 12.8%
% solubility [3]: 69%
microsomal CLint (in vitro [4]): 106 µL/min/mg
remaining at 5 min (in vitro [4]): 76%
remaining at 10 min (in vitro [4]): 56%
remaining at 20 min (in vitro [4]): 45%
remaining at 0.5 h (in vitro [4]): 35%
remaining at 0.75 h (in vitro [4]): 16%
remaining at 1 h (in vitro [4]): 17%
Papp A-B + Elacridar avg (Caco-2 cells): 0 ×10⁻⁶ cm/s
Papp A-B + Elacridar set 1 (Caco-2 cells): 0 ×10⁻⁶ cm/s
Papp A-B + Elacridar set 2 (Caco-2 cells): 0 ×10⁻⁶ cm/s
Papp A-B avg (Caco-2 cells): 0 cm/s
Papp A-B avg (second block) (Caco-2 cells): 0.00 cm/s
Papp A-B set 1 (Caco-2 cells): 0 cm/s
Papp A-B set 1 (second block) (Caco-2 cells): 0.00 cm/s
Papp A-B set 2 (Caco-2 cells): 0 cm/s
Papp A-B set 2 (second block) (Caco-2 cells): 0.00 cm/s
Papp AB+Elacridar (PAMPA Caco2 correlation) (Caco-2 cells): 0 ×10⁻⁶ cm/s
Papp B-A avg (second block) (Caco-2 cells): 5.3 ×10⁻⁶ cm/s
Papp B-A set 1 (second block) (Caco-2 cells): 4.5 ×10⁻⁶ cm/s
Papp B-A set 2 (second block) (Caco-2 cells): 6.1 ×10⁻⁶ cm/s
Papp B→A (in vitro [5]; Caco-2, Papp B-A + Elacridar avg): 0.6 ×10⁻⁶ cm/s
Papp B→A (in vitro [5]; Caco-2, Papp B-A avg): 5.26 ×10⁻⁶ cm/s
Half lives (human liver microsomes): 13.8
logD heptane ethylene glycol [6]: 0.72
logD (physchem): 1.27
fraction unbound (in vitro [7]): 0.24
half-life (in vitro [8]): 21 h
remaining at 1 h (in vitro [8]): 87%
remaining at 3 h (in vitro [8]): 83%
remaining at 5 h (in vitro [8]): 78%
remaining at 7 h (in vitro [8]): 75%
remaining at 9 h (in vitro [8]): 64%
remaining at 12 h (in vitro [8]): 60%
remaining at 24 h (in vitro [8]): 44%
remaining at 36 h (in vitro [8]): 34%
remaining at 48 h (in vitro [8]): 26%
remaining at 60 h (in vitro [8]): 10%
remaining at 72 h (in vitro [8]): 12%
Compound: CC(C)C[C@@H]1NC(=O)[C@H](Cc2ccc(O)cc2)NC(=O)[C@H]2CCCN2C(=S)[C@H](CC(C)C)NC(=O)[C@H](CC(C)C)NC(=O)[C@@H](CC(C)C)NC1=O [10c] (cyclo(L[dL]L[X4]Y))

Pe Avg [1]: 4.2 ×10⁻⁶ cm/s
Pe set1 [1]: 2.03 ×10⁻⁶ cm/s
Pe set2 [1]: 5.97 ×10⁻⁶ cm/s
Pe set3 [1]: 4.7 ×10⁻⁶ cm/s
Papp ([1]; Pe Avg): 4.2 ×10⁻⁶ cm/s
half-life (pepsin): 0.4 h
remaining at 5 min (pepsin): 75%
remaining at 10 min (pepsin): 66%
remaining at 20 min (pepsin): 56%
remaining at 0.5 h (pepsin): 44%
remaining at 1 h (pepsin): 37%
remaining at 2 h (pepsin): 29%
remaining at 4 h (pepsin): 21%
remaining at 8 h (pepsin): 16%
remaining at 12 h (pepsin): 6%
remaining at 24 h (pepsin): 2%
half-life (in vitro [2]): 1.35 h
remaining at 10 min (in vitro [2]): 79.4%
remaining at 0.5 h (in vitro [2]): 62.8%
remaining at 1 h (in vitro [2]): 56.2%
remaining at 2 h (in vitro [2]): 38.5%
remaining at 4 h (in vitro [2]): 31.9%
remaining at 8 h (in vitro [2]): 19.6%
remaining at 12 h (in vitro [2]): 11.2%
remaining at 24 h (in vitro [2]): 5.8%
% solubility [3]: 22%
microsomal CLint (in vitro [4]): 47 µL/min/mg
remaining at 5 min (in vitro [4]): 96%
remaining at 10 min (in vitro [4]): 71%
remaining at 20 min (in vitro [4]): 61%
remaining at 0.5 h (in vitro [4]): 50%
remaining at 0.75 h (in vitro [4]): 40%
remaining at 1 h (in vitro [4]): 20%
Half lives (human liver microsomes): 29.5
logD heptane ethylene glycol [6]: 0.72
logD (physchem): 1.24
fraction unbound (in vitro [7]): 0.03
half-life (in vitro [8]): 20 h
remaining at 1 h (in vitro [8]): 86%
remaining at 3 h (in vitro [8]): 81%
remaining at 5 h (in vitro [8]): 78%
remaining at 7 h (in vitro [8]): 63%
remaining at 9 h (in vitro [8]): 59%
remaining at 12 h (in vitro [8]): 64%
remaining at 24 h (in vitro [8]): 46%
remaining at 36 h (in vitro [8]): 35%
remaining at 48 h (in vitro [8]): 31%
remaining at 60 h (in vitro [8]): 21%
remaining at 72 h (in vitro [8]): 19%
Compound: CC(C)C[C@@H]1NC(=O)[C@H](Cc2ccc(O)cc2)NC(=S)[C@H]2CCCN2C(=O)[C@H](CC(C)C)NC(=O)[C@H](CC(C)C)NC(=O)[C@@H](CC(C)C)NC1=O [10d] (cyclo(LL[X6]L[dL]))

Papp ([1]; Pe Avg): 6.13 ×10⁻⁶ cm/s
half-life (pepsin): 1.75 h
remaining at 2 min (pepsin): 97%
remaining at 10 min (pepsin): 84%
remaining at 20 min (pepsin): 77%
remaining at 0.5 h (pepsin): 71%
remaining at 1 h (pepsin): 65%
remaining at 2 h (pepsin): 46%
remaining at 4 h (pepsin): 19%
remaining at 8 h (pepsin): 11%
remaining at 12 h (pepsin): 7%
half-life (in vitro [2]): 1.55 h
remaining at 10 min (in vitro [2]): 88%
remaining at 0.5 h (in vitro [2]): 75%
remaining at 1 h (in vitro [2]): 62%
remaining at 2 h (in vitro [2]): 39%
remaining at 4 h (in vitro [2]): 30%
remaining at 8 h (in vitro [2]): 6%
remaining at 12 h (in vitro [2]): 3%
microsomal CLint (in vitro [4]): 144 µL/min/mg
remaining at 2 min (in vitro [4]): 67%
remaining at 10 min (in vitro [4]): 50%
remaining at 20 min (in vitro [4]): 28%
remaining at 0.5 h (in vitro [4]): 16%
remaining at 0.75 h (in vitro [4]): 4.69%
remaining at 1 h (in vitro [4]): 5.45%
Half lives (human liver microsomes): 10.3
logD (physchem): 1.2
fraction unbound (in vitro [7]): 0.53
Fold Change of AUClast p.o [9]: 393
half-life (in vitro [8]): 12 h
remaining at 2 h (in vitro [8]): 82%
remaining at 4 h (in vitro [8]): 69%
remaining at 8 h (in vitro [8]): 57%
remaining at 16 h (in vitro [8]): 39%
remaining at 24 h (in vitro [8]): 28%
remaining at 48 h (in vitro [8]): 8%
remaining at 72 h (in vitro [8]): 2.65%
AUC(0-t) (in vivo; iv): 510 ng·h/mL
Cmax (in vivo; iv): 1170 ng/mL
MRT (in vivo; iv): 0.4 h
Vd (in vivo; iv): 0.8 L/kg
clearance (in vivo; iv): 33.3 mL/min/kg
bioavailability (in vivo; po): 6.8%
AUC(0-t) (in vivo; po, 10 mg/kg): 345 ng·h/mL
Cmax (in vivo; po, 10 mg/kg): 55.9 ng/mL
MRT (in vivo; po, 10 mg/kg): 9 h
level at 3 h (in vivo; po, 10 mg/kg): 26.6 ng/mL
Compound: CC(C)C[C@@H]1NC(=O)[C@@H](CC(C)C)NC(=O)[C@H](CC(C)C)N(C)C(=O)[C@H](Cc2ccc(O)cc2)NC(=O)[C@H]2CCCN2C(=O)[C@H](CC(C)C)NC1=O [10k] (cyclo(LL[dP]Y[NMeL][dL]))

Papp ([1]; Pe Avg): 2.6 ×10⁻⁶ cm/s
% solubility [3]: 49%
logD (physchem): 1.61
tR [10]: 15.5 min
Compound: CC(C)C[C@@H]1NC(=O)[C@@H](CC(C)C)NC(=O)[C@H]2CCCN2C(=S)[C@H](CC(C)C)NC(=O)[C@@H](CC(C)C)NC(=O)[C@H](CC(C)C)NC(=O)[C@@H]2CCCN2C(=O)[C@@H](C)NC1=O [12b] (cyclo(L[dL][X4][dL]L[dA]P))

Papp ([1]; Pe Avg): 5.7 ×10⁻⁶ cm/s
% solubility [3]: 41%
logD (physchem): 1.37
tR [10]: 15 min
Compound: CC(C)C[C@@H]1NC(=O)[C@@H]2CCCN2C(=O)[C@@H](C)NC(=S)[C@H](CC(C)C)NC(=O)[C@@H](CC(C)C)NC(=O)[C@H]2CCCN2C(=O)[C@H](CC(C)C)NC(=O)[C@@H](CC(C)C)NC1=O [12e] (cyclo([dL]L[dP][dL][X16]PL))

Papp ([1]; Pe Avg): 7.7 ×10⁻⁶ cm/s
% solubility [3]: 40%
logD (physchem): 1.49
tR [10]: 16.4 min
Compound: CC(C)C[C@@H]1NC(=O)[C@@H](CC(C)C)NC(=O)[C@H]2CCCN2C(=O)[C@H](CC(C)C)NC(=O)[C@@H](CC(C)C)NC(=S)[C@H](CC(C)C)NC(=O)[C@@H]2CCCN2C(=O)[C@@H](C)NC1=O [12h] (cyclo([X3]L[dP][dL]L[dA]P))

Papp ([1]; Pe (PAMPA vs logD7.4)): 0.41 ×10⁻⁶ cm/s
Papp ([1]; Pe Avg): 0.4 ×10⁻⁶ cm/s
% solubility [3]: 95%
logD (physchem): 0.1
tR [10]: 5.299 min
Compound: CC[C@H](C)[C@@H]1NC(=O)[C@@H]2CCCN2C(=O)[C@H]([C@@H](C)CC)NC(=O)[C@@H]2CCCN2C(=O)[C@H](Cc2ccccc2)NC(=O)[C@H](C)NC(=O)[C@H](C)NC1=O [compound 11, cyclo(-Ile^1-Ala-Ala-Phe-Pro-Ile-Pro^7-)] (cyclo(AAFPIPI))

Papp ([1]; Pe Avg): 3 ×10⁻⁶ cm/s
% solubility [3]: 94%
logD (physchem): 0.75
tR [10]: 12.6 min
Compound: CC(C)C[C@@H]1NC(=O)[C@@H](CC(C)C)NC(=O)[C@H]2CCCN2C(=O)[C@H](CC(C)C)NC(=O)[C@@H](CC(C)C)NC(=O)[C@H](CC(C)C)NC(=O)[C@@H]2CCCN2C(=O)[C@@H](C)NC1=O [compound 12, cyclo(-D-Leu^1-Leu-D-Pro-D-Leu-Leu-D-Ala-Pro-Leu^8-)] (cyclo(L[dA]PL[dL]L[dP][dL]))
